Results on four compounds are retold here after patent US7625567B1, “Induction of immune responses to isoaspartyl-modified antigens” (Yale University, priority 2001, dated 2009).

Numbered stars: 1 amine (or outer) side, 2 acyl side, 3 side chain; on linkers, the order of the positions; unused ones are H or OH. Square brackets hold non-standard residues; d marks the D form. Ends that are not written are not given here. βAsp = O=C(O)[C@H](CC(=O)[*:2])N[*:1]

Test [1] deals with EL-4 target cells pulsed with TRP-2. In words: Cytotoxicity of CD8 T cells from immunized mice against peptide-pulsed EL-4 target cells (Cytotox 96). It counts as in vivo. Particulars: 50 μg in CFA s.c.; effector to target ratios 5:1, 10:1, 20:1; EL-4 targets. The procedure:
FIG. 10 illustrates that immunization with isoaspartyl TRP-2 peptide elicits CD8 T cells that kill tumor peptide bearing target cells. Mice were immunized with isoaspartyl or aspartyl TRP-2 (50 μg in CFA), by subcutaneous route. Lymph node cells were expanded in vitro for 5 days with isoaspartyl TRP-2 as described above. After 5 days, purified effector CD8 T cells were mixed with EL-4 target cells pulsed with isoaspartyl TRP-2, aspartyl TRP-2, or unpulsed EL-4 cells, as indicated. Averages of triplicate cultures are reported for effector to target ratios of 5:1, 10:1, and 20:1. Cytotoxicity was performed by commercial non-radioactive methods (Ctyotox 96, Promega, Inc.) according to the manufacturer's instructions. As indicated in the upper panel of FIG. 10, mice immunized with isoaspartyl TR-2 peptide kill up to 35% of TRP-2 pulsed target cells.

The next test concerns B16F10 melanoma cells. Kind of test: Anti-tumor antibody response: serum binding to B16F10 cells by flow cytometry. It counts as in vivo, mice. Particulars: 50 μg peptide s.c., serum day 28, 1/100 dilution, anti-mouse IgG-FITC. The procedure:
FIG. 8 illustrates that immunization with isoaspartyl TRP-2 elicits anti-tumor antibody responses. Mice were immunized subcutaneously with 50 μg of isoaspartyl or aspartyl TRP-2 peptide, as indicated. Mice were bled at day 28 post immunization. Serum (1/100 dilutions in phosphate buffered saline (PBS)) was incubated with B16F10 melanoma cells (5×10^5 cells) and analyzed by flow cytometry after the detection of bound antibody with anti-mouse IgG-FITC.

Test [2] concerns CD8 T cells stimulated with isoaspartyl or aspartyl TRP-2 pulsed APCs. Kind of test: CD8 T cell proliferation after immunization with TRP-2 peptide. It is filed as in vivo, C57B1/6 mice. Particulars: 50 μg peptide s.c. in CFA, day 7 lymph node CD8 T cells. As for the experimental part: FIG. 7 illustrates that immunization with isoaspartyl TRP-2 peptide elicits CD8 T cells that proliferate in response to stimulation with isoaspartyl or aspartyl TRP-2 peptide. For these studies, C57B1/6 mice are immunized subcutaneously with 50 μg of either isoaspartyl TRP-2 peptide or aspartyl TRP-2 peptide emulsified in complete Freund's adjuvant (CFA). After 7 days, lymph node cells are collected and CD8 T cells are purified by magnetic bead depletion of CD4+, B220+, CD11c+ cells. CD8 T cells (1×10^5) are incubated for 3 days in tissue culture (37° C., 5% CO2) with irradiated splenic antigen presenting cells (APCs; 5×10^5 cells) pulsed with isoaspartyl TRP-2 or aspartyl TRP-2 in the concentrations as indicated.

The test system of test [3] is TRP-2 specific CD8 T cells. In words: MHC class I (H-2 Kb) TRP-2 tetramer staining of CD8 T cells after immunization. Conditions: 50 μg s.c. in CFA, day 14 lymph node cells, 5 day culture with isoaspartyl TRP-2 10 μg/ml. It is filed as in vivo, mice. The procedure: FIG. 9 illustrates that CD8 T cells specific for the TRP-2 peptide are elicited by immunization with isoaspartyl TRP-2 peptide. Mice were immunized subcutaneously with 50 μg of isoaspartyl TRP-2 emulsified in CFA. At day 14 after immunization, lymph node cells were removed and single cell suspensions (4×10^6 cells/ml) were incubated in culture with isoaspartyl TRP-2 peptide (10 μg/ml) for 5 days (37° C., 5% CO2). Living cells were purified by Ficoll-hypaque and incubated with anti-CD8-FITC antibody (Promega Inc.) and MHC class I (H-2 Kb) tetramers linked to PE, as indicated. Tetramer staining was performed with a control, non-specific peptide (SIINFEKL) (SEQ ID NO:4) and with aspartyl and isoaspartyl TRP-2 peptide tetramers, as indicated.

Test [4] has as its system B16F10 melanoma tumor masses. In words: CD8 T cell influx into B16F10 melanoma tumor tissue (immunohistochemistry). It counts as in vivo, mice. Conditions: 50 μg in CFA s.c.; challenge day 21 with 0.5×10^6 B16F10 cells; tumors day 14 after challenge. The procedure:
FIG. 11 illustrates an influx of CD8 T cells into melanoma tumor tissues of mice immunized with isoaspartyl TRP-2 immunized mice. […] For these studies, mice were immunized with isoaspartyl or aspartyl TRP-2 (50 μg in CFA), by subcutaneous route. At day 21, mice were challenged with 0.5×10^6 B16F10 melanoma cells by subcutaneous route. At day 14 after tumor cell challenge, tumor masses were removed and stain for CD8 T cells by conventional immunohistochemistry.

In test [5] the test system is TRP-2 peptide pulsed syngeneic spleen cells. Kind of test: In vivo CTL assay: killing of tumor peptide pulsed target cells. The arrangement: species or system mice. Particulars: 50 μg in CFA s.c., day 21, 16 hours. As for the experimental part:
In this approach, groups of 6 mice were immunized with isoaspartyl or aspartyl TRP-2 (50 μg in CFA), by subcutaneous route. At day 21 mice were examined for their ability to kill tumor peptide pulsed target cells (in vivo CTL assays) modified by the protocol of Coles, et al. (J. Immunol. 168:834-838 (2002)). In brief, two populations of syngeneic target spleen cells are labeled with low or high concentrations of CFSE (0.5 μM or 5.0 μM CFSE, respectively). Spleen cells labeled with 5.0 μM CFSE are pulsed with isoaspartyl or aspartyl TRP-2 peptide (1 μg/ml) as the in vivo target cell population. Both high CFSE labeled/TRP-2 peptide pulsed and low CFSE labeled/unpulsed spleen cells (1×10^7 cells for each population) are transferred by intravenous route into immunized mice as described above. Mice were sacrificed at 16 hours and in vivo lysis of peptide pulsed targets is defined by flow cytometry technology as: Ratio=% CFSE low/% CFSE high % Specific Killing=[1−(ratio in control immunized/ratio in immunized)×100].

In the next test the test system is B16 melanoma cells. In words: Isoaspartyl content of living B16 melanoma cells after adenosine dialdehyde treatment (ISOQUANT assay). Particulars: 30 μM adenosine dialdehyde, 48 h. It counts as cell-based, murine. As for the experimental part:
Isoaspartyl residues were detected by the enzyme, protein isoaspartyl methyltransferase, according to the manufacturer's protocol (ISOQUANT™ Protein Deamidation Detection Kit, Promega Corp., Madison, Wis.). In brief, samples and control peptides are incubated 30 min. at 30 C in a reaction mixture containing protein isoaspartyl methyltransferase, [^3H}S-adenosyl-L-methionine, and cold S-adenyl-L-methionine. The reaction is stopped at pH 10 on ice and volatile [^3H]methanol is condensed in the reaction vessel. Fifty μl of sample is adsorbed to a sponge attached to the cap of a scintillation vial. The sample is incubated 60 min. at 40 C to volatize [^3H]methanol into the scintillation mixture and counted for counts/min. […]
Briefly, selected cells, such as B16-F0 melanoma cells, are grown to confluency. The cells are then exposed to trypsin and counted. […] The cells are next harvested using trypsin, washed, and counted. […] Protein concentration is determined in both the supernatant and the pellet. Isoaspartyl generation is determined by ISOQUANT assay described above.
In cell culture, B16 cells were incubated with 30 μM adenosine dialdehyde for 48 h as described above. […] Isoaspartyl content was determined as described above.

The subject of test [6] is B and T cell compartments. Particulars: mice immunized with peptide (Mamula et al. 1999); cited from earlier work.
A further test deals with B16F10 tumor cells. In words: Survival of immunized mice challenged with B16F10 tumor cells. It counts as in vivo. Conditions: 50 μg in CFA s.c.; challenge s.c. day 21 with 0.5×10^6 cells; groups of 10 mice. The procedure: For these studies, groups of 10 mice were immunized with isoaspartyl or aspartyl TRP-2 (50 μg in CFA), by subcutaneous route as described above. Mice were challenged subcutaneously at day 21 with 0.5×10^6 cells. Survival was assessed every 3 days.

The mark [7] stands for this setting: target cells transferred: Asp TRP-2 pulsed.
Setting [8] is: target cells transferred: Isoasp TRP-2 pulsed.

On to “Aspartyl TRP-2: TRP-2 peptide (sequence 181-188) synthesized with an aspartic acid residue at 183 (SEQ ID NO:2) (VYDFFVWL; Human)”, for which the “killing of TRP-2 pulsed target cells” value in test [1] is listed as “fail to elicit cytotoxic T cell responses”. Moreover, in the test with B16F10 melanoma cells, the “anti-tumor antibodies binding B16F10 cells” value is listed as “little or no anti-tumor antibodies are detected”. For the same compound, in test [2], the “CD8 T cell response to stimulation with isoaspartyl or aspartyl TRP-2 peptide” value is recorded as “fails to elicit any detectable T cell responses”. Also, the “TRP-2 specific CD8 T cells bound by aspartyl and isoaspartyl TRP-2 tetramers” value in [3] is given as “failed to stimulate TRP-2 specific CD8 T cells”. Also, the “influx of CD8 T cells into tumor masses” value in test [4] is “fail to show CD8 T cells in the tumor masses”. Moreover, the figures for the “% Specific Killing” value in test [5] (setting [7]) and in test [5] (setting [8]) were 5% and 22%, respectively.

For the compound `Nc1ncnc2c1ncn2C(C=O)OC(C=O)CO` (centres unmarked) [adenosine dialdehyde], in the test with B16 melanoma cells, the “isoaspartyl content compared to untreated B16 cells” value is given as “enhanced from two to five fold”.

Consider “murine cytochrome c peptide 90-104: murine cytochrome c peptide 90-104, normal aspartyl form (ERADLIAYLKKATNE; UniProt P62897 91-105, looked up, fragment)”, for which, in test [6], the “B and T cell response to immunization” value is “no response by the B or T cell compartments”.

On to “Isoaspartyl TRP-2: TRP-2 peptide (sequence 181-188) synthesized with an isoaspartyl amino acid modification at residue 183 (SEQ ID NO:3) (VY[βAsp]FFVWL)”, for which, in test [1], the “killing of TRP-2 pulsed target cells” value is listed as “up to 35%”. In the test with B16F10 melanoma cells, the “anti-tumor antibodies binding B16F10 cells” value was “effectively bind B16F10 cells”. The “CD8 T cell response to stimulation with isoaspartyl or aspartyl TRP-2 peptide” value in [2] is reported as “elicits cross reactive T cells that respond to stimulation with either isoaspartyl or aspartyl TRP-2 peptide”. Moreover, in test [3], the “TRP-2 specific CD8 T cells bound by aspartyl and isoaspartyl TRP-2 tetramers” value is “profoundly stimulated the growth of CD8 T cells that were bound by aspartyl and isoaspartyl TRP-2 tetramers”. Moreover, the “survival after B16F10 challenge” value in the test on B16F10 tumor cells is recorded as “greater survival as compared to mice immunized with aspartyl TRP-2 or CFA control immunizations”. The “influx of CD8 T cells into tumor masses” value in test [4] is given as “significant influx of CD8 T cells”. Further, the “% Specific Killing” value in test [5] (setting [7]) worked out at 56%; in test [5] (setting [8]) it was 60%.
